Assay results reported in US8030354B2, “Substituted biphenyl GPR40 modulators” (Amgen Inc., priority 2007, dated 2011).

What follows are compounds tested against GPR40 (Homo sapiens, UniProt O14842) (assay: Cell-based aequorin assay (CHO cells stably expressing GPR40 and aequorin)). Conditions: activation of human GPR40, CHO cells, 0.01% HSA.
Design: expressed in transfected cells; host or cells: CHO cells stably transfected with GPR40 and aequorin
Outline: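 CHO cells stably co-expressing GPR40 and aequorin, loaded with coelenterazine (1 ug/mL, 2 h, room temperature) in H/HBSS with 20 mM Hepes and 0.01% fatty acid-free HSA. Serially diluted compounds added; luminescence recorded over 20 s. EC50 from dose-response of maximum relative light units.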

Sequence of GPR40 (O14842 whole entry): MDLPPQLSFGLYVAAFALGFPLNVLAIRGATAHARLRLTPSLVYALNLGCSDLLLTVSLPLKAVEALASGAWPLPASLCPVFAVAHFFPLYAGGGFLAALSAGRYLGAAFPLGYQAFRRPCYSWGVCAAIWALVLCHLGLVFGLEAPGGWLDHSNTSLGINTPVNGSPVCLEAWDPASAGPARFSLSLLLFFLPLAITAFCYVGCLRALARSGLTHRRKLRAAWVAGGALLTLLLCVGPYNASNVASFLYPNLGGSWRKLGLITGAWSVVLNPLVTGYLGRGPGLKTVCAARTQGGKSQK

CCC[C@H](CC(=O)O)c1cccc(OCc2ccc(-c3cc(OC)ccc3F)c(COCC)c2)c1 (single isomer, unassigned) [Example 67.23, (3R)-3-(3-(((2-((Ethyloxy)methyl)-2′-fluoro-5′-(methyloxy)-1,1′-biphenyl-4-yl)methyl)oxy)phenyl)hexanoic acid or (3S)-3-(3-(((2-((ethyloxy)methyl)-2′-fluoro-5′-(methyloxy)-1,1′-biphenyl-4-yl)methyl)oxy)phenyl)hexanoic acid] and CCC[C@H](CC(=O)O)c1cccc(OCc2ccc(-c3cc(OC)ccc3F)c(COCC=C(C)C)c2)c1 (single isomer, unassigned) [Example 67.27, (3R)-3-(3-(((2′-Fluoro-2-(((3-methyl-2-butenyl)oxy)methyl)-5′-(methyloxy)-1,1′-biphenyl-4-yl)methyl)oxy)phenyl)hexanoic acid or (3S)-3-(3-(((2′-fluoro-2-(((3-methyl-2-butenyl)oxy)methyl)-5′-(methyloxy)-1,1′-biphenyl-4-yl)methyl)oxy)phenyl)hexanoic acid] fall in the same range of EC50: 1000 to 10000 nM for the first, 1000 to 10000 nM for the second.

C=CC(C)(C)[C@H](O)c1cc(COc2cccc([C@H](CCC)CC(=O)O)c2)ccc1-c1cc(OC)ccc1F (single isomer, unassigned) [Example 67.25, (3R)-3-(3-(((2′-Fluoro-2-((1S)-1-hydroxy-2,2-dimethyl-3-butenyl)-5′-(methyloxy)-1,1′-biphenyl-4-yl)methyl)oxy)phenyl)hexanoic acid or (3R)-3-(3-(((2′-fluoro-2-((1R)-1-hydroxy-2,2-dimethyl-3-butenyl)-5′-(methyloxy)-1,1′-biphenyl-4-yl)methyl)oxy)phenyl)hexanoic acid] and C=CC(C)(C)C(O)c1cc(COc2cccc(C(CC(=O)O)CC3CC3)c2)ccc1-c1cc(OC)ccc1F (single isomer, unassigned) [Example 69.40] fall in the same range of EC50: 1000 to 10000 nM for the first, 1000 to 10000 nM for the second.

First: CCCC(CC(=O)O)c1cccc(OCc2ccc(-c3cc(OC)ccc3F)c(C(OC)C(C)(C)CC)c2)c1 (single isomer, unassigned) [Example 67.26]
Second: CCC(C)(C)C(OC)c1cc(COc2cccc(C(CC(=O)O)CC3CC3)c2)ccc1-c1cc(OC)ccc1F (single isomer, unassigned) [Example 69.41, (3R)-4-Cyclopropyl-3-(3-(((2-((1S)-2,2-dimethyl-1-(methyloxy)butyl)-2′-fluoro-5′-(methyloxy)-1,1′-biphenyl-4-yl)methyl)oxy)phenyl)butanoic acid or (3R)-4-cyclopropyl-3-(3-(((2-((1S)-2,2-dimethyl-1-(methyloxy)butyl)-2′-fluoro-5′-(methyloxy)-1,1′-biphenyl-4-yl)methyl)oxy)phenyl)butanoic acid]
The EC50 of the first is higher: 1000 to 10000 nM for the first, 100 to 1000 nM for the second. The second is the more potent here.

CCCC(CC(=O)O)c1cccc(OCc2ccc(-c3cc(OC)ccc3F)c(CN3CCCC3)c2)c1 (single isomer, unassigned) [Example 67.28, (3R)-3-(3-(((2′-Fluoro-5′-(methyloxy)-2-(1-pyrrolidinylmethyl)-1,1′-biphenyl-4-yl)methyl)oxy)phenyl)hexanoic acid or (3S)-3-(3-(((2′-fluoro-5′-(methyloxy)-2-(1-pyrrolidinylmethyl)-1,1′-biphenyl-4-yl)methyl)oxy)phenyl)hexanoic acid] and COc1ccc(F)c(-c2ccc(COc3cccc(C(CC(=O)O)CC4CC4)c3)cc2CN2CCCC2)c1 (single isomer, unassigned) [Example 69.46, (3R)-4-Cyclopropyl-3-(3-(((2′-fluoro-5′-(methyloxy)-2-(1-pyrrolidinylmethyl)-1,1′-biphenyl-4-yl)methyl)oxy)phenyl)butanoic acid or (3S)-4-cyclopropyl-3-(3-(((2′-fluoro-5′-(methyloxy)-2-(1-pyrrolidinylmethyl)-1,1′-biphenyl-4-yl)methyl)oxy)phenyl)butanoic acid] fall in the same range of EC50: 1000 to 10000 nM for the first, 1000 to 10000 nM for the second.

First: COc1ccc(F)c(-c2ccc(COc3cccc(C(CCC(F)(F)F)CC(=O)O)c3)cc2C(C)(C)C)c1 (single isomer, unassigned) [Example 68.1, (3R)-3-(3-(((2-(1,1-Dimethylethyl)-2′-fluoro-5′-(methyloxy)-1,1′-biphenyl-4-yl)methyl)oxy)phenyl)-6,6,6-trifluorohexanoic acid or (3S)-3-(3-(((2-(1,1-dimethylethyl)-2′-fluoro-5′-(methyloxy)-1,1′-biphenyl-4-yl)methyl)oxy)phenyl)-6,6,6-trifluorohexanoic acid]
Second: CCCCOc1cc(COc2cccc(C(CCC(F)(F)F)CC(=O)O)c2)ccc1-c1cc(OC)ccc1F (single isomer, unassigned) [Example 68.2, (3R)-3-(3-(((2-(Butyloxy)-2′-fluoro-5′-(methyloxy)-1,1′-biphenyl-4-yl)methyl)oxy)phenyl)-6,6,6-trifluorohexanoic acid or (3S)-3-(3-(((2-(butyloxy)-2′-fluoro-5′-(methyloxy)-1,1′-biphenyl-4-yl)methyl)oxy)phenyl)-6,6,6-trifluorohexanoic acid]
The EC50 of the first is lower: 100 to 1000 nM for the first, 1000 to 10000 nM for the second. The first is the more potent here.

First: CCCCOc1cc(COc2cccc(C(CC(=O)O)CC3CC3)c2)ccc1-c1cc(OC)ccc1F (single isomer, unassigned) [Example 69.5, (3R)-3-(3-(((2-(Butyloxy)-2′-fluoro-5′-(methyloxy)-1,1′-biphenyl-4-yl)methyl)oxy)phenyl)-4-cyclopropylbutanoic acid or (3S)-3-(3-(((2-(butyloxy)-2′-fluoro-5′-(methyloxy)-1,1′-biphenyl-4-yl)methyl)oxy)phenyl)-4-cyclopropylbutanoic acid]
Second: CCOCc1cc(COc2cccc(C(CC(=O)O)CC3CC3)c2)ccc1-c1cc(OC)ccc1F (single isomer, unassigned) [Example 69.37, (3R)-4-Cyclopropyl-3-(3-(((2-((ethyloxy)methyl)-2′-fluoro-5′-(methyloxy)-1,1′-biphenyl-4-yl)methyl)oxy)phenyl)butanoic acid or (3S)-4-cyclopropyl-3-(3-(((2-((ethyloxy)methyl)-2′-fluoro-5′-(methyloxy)-1,1′-biphenyl-4-yl)methyl)oxy)phenyl)butanoic acid]
The EC50 of the first is lower: 100 to 1000 nM for the first, 1000 to 10000 nM for the second. The first is the more potent here.

COc1ccc(F)c(-c2ccc(COc3cccc(C(CC(=O)O)CC4CC4)c3)cc2C2CCCC2(C)C)c1 (single isomer, unassigned) [Example 69.7] and COc1ccc(F)c(-c2ccc(COc3cccc(C(CC(=O)O)CC4CC4)c3)cc2C2OCCCC2(C)C)c1 (single isomer, unassigned) [Example 69.27, (R)-4-Cyclopropyl-3-{3-[2-(3,3-dimethyl-tetrahydro-pyran-2-yl)-2′-fluoro-5′-methoxy-biphenyl-4-ylmethoxy]-phenyl}-butyric acid or (S)-4-cyclopropyl-3-{3-[2-(3,3-dimethyl-tetrahydro-pyran-2-yl)-2′-fluoro-5′-methoxy-biphenyl-4-ylmethoxy]-phenyl}-butyric acid] fall in the same range of EC50: 100 to 1000 nM for the first, 100 to 1000 nM for the second.

Compared with COc1cccc(-c2ccc(COc3cccc(C(CC(=O)O)CC4CC4)c3)cc2C2CCCC2(C)C)c1 (single isomer, unassigned) [Example 69.9], COc1ccc(F)c(-c2ccc(COc3cccc([C@@H](CC(=O)O)CC4CC4)c3)cc2[C@@H]2OCCC2(C)C)c1 (single isomer, unassigned) [Example 69.43] is higher in EC50: 100 to 1000 nM for the first, 1000 to 10000 nM for the second.

COc1ccc(F)c(-c2ccc(COc3cccc(C(CC(=O)O)CC4CC4)c3)cc2C(=O)C(C)(C)C)c1 (single isomer, unassigned) [Example 69.20, (3R)-4-Cyclopropyl-3-(3-(((2-(2,2-dimethylpropanoyl)-2′-fluoro-5′-(methyloxy)-1,1′-biphenyl-4-yl)methyl)oxy)phenyl)butanoic acid or (3S)-4-cyclopropyl-3-(3-(((2-(2,2-dimethylpropanoyl)-2′-fluoro-5′-(methyloxy)-1,1′-biphenyl-4-yl)methyl)oxy)phenyl)butanoic acid] and COc1ccc(F)c(-c2ccc(COc3cccc([C@@H](CC(=O)O)CC4CC4)c3)cc2S(=O)(=O)C(C)C)c1 (single isomer, unassigned) [Example 69.25, (R)-4-Cyclopropyl-3-{3-[2′-fluoro-5′-methoxy-2-(propane-2-sulfonyl)-biphenyl-4-ylmethoxy]-phenyl}-butyric acid or (S)-4-cyclopropyl-3-{3-[2′-fluoro-5′-methoxy-2-(propane-2-sulfonyl)-biphenyl-4-ylmethoxy]-phenyl}-butyric acid] fall in the same range of EC50: 1000 to 10000 nM for the first, 1000 to 10000 nM for the second.

COc1ccc(F)c(-c2ccc(COc3cccc([C@@H](CC(=O)O)CC4CC4)c3)cc2[S+]([O-])C(C)C)c1 (single isomer, unassigned) [Example 69.26, (R)-4-Cyclopropyl-3-{3-[2′-fluoro-5′-methoxy-2-(propane-2-sulfinyl)-biphenyl-4-ylmethoxy]-phenyl}-butyric acid or (S)-4-cyclopropyl-3-{3-[2′-fluoro-5′-methoxy-2-(propane-2-sulfinyl)-biphenyl-4-ylmethoxy]-phenyl}-butyric acid] and C=CC(C)(C)[C@H](OC)c1cc(COc2cccc([C@@H](CC(=O)O)CC3CC3)c2)ccc1-c1cc(OC)ccc1F (single isomer, unassigned) [Example 69.39] fall in the same range of EC50: 1000 to 10000 nM for the first, 1000 to 10000 nM for the second.

Compound COc1ccc(F)c(-c2ccc(COc3cccc(C(CC(=O)O)CC4CC4)c3)cc2COCC=C(C)C)c1 (single isomer, unassigned) [Example 69.45, (3R)-4-Cyclopropyl-3-(3-(((2′-fluoro-2-(((3-methyl-2-butenyl)oxy)methyl)-5′-(methyloxy)-1,1′-biphenyl-4-yl)methyl)oxy)phenyl)butanoic acid or (3S)-4-cyclopropyl-3-(3-(((2′-fluoro-2-(((3-methyl-2-butenyl)oxy)methyl)-5′-(methyloxy)-1,1′-biphenyl-4-yl)methyl)oxy)phenyl)butanoic acid] has an EC50 of 1000 to 10000 nM.
